The results in this text go back to patent US20220306695A1, “COMPSTATIN ANALOGUES AND THEIR MEDICAL USES” (priority 2019, published 2022).

Like-named read-outs stand apart in the source and are kept apart here. Starred links: 1 amine or outer side, 2 acyl side, 3 side chain; linkers in the order of their positions; H or OH if unused. Positions of bridges follow the written chain, without caps; N, C: chain ends. Non-standard residues stand in square brackets, D forms with d. Residues, ends and D or L forms follow the SMILES beside them. Groups on a side chain read outwards from the residue. *: point of attachment. Trp(1-Me) = Cn1cc(C[C@H](N)C(=O)O)c2ccccc21; Abu(4-yl) = O=C([C@H](CC[*:3])N[*:1])[*:2]; C18 diacid = O=C(O)CCCCCCCCCCCCCCCCC(=O)*; γGlu = O=C(O)[C@H](CCC(=O)[*:2])N[*:1]; AEEA = NCCOCCOCC(=O)O; Sar = CNCC(=O)O

The subject of experiment [1] is classical complement pathway. Put plainly: In vitro haemolysis assay (inhibition of classical complement pathway). The experiment is classed as cell-based, human. An outline of the steps:
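Serially diluted compound (9 points) was preincubated 15 min at room temperature with diluted human serum, titrated per batch to give 70-90% maximal haemolysis, in Tris/casein buffer pH 7.4 with Mg2+/Ca2+. Antibody-sensitized sheep erythrocytes were then added for 30 min at 37° C, and the reaction was stopped with EDTA. Haemolysis was read at A405, with IC50 from 4PL fit.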

The target in experiment [2] is T1, Human C3 (Homo sapiens, UniProt P01024).
T1 construct: purchased Complement tech A1 13c (so in the source)
The experiment can be described thus: Affinity measurement by surface plasmon resonance (SPR) with immobilized C3. In kind it is binding. The settings on record: Table 7; immobilized C3, 25° C., pH 7.4. As for the experimental part:
Surface plasmon resonance (SPR) was used to characterize peptides with respect to their binding affinity (Kd) for C3. Human C3 (Complement tech cat #A1 13c) was immobilised on individual flow cells of CM5 sensor chips (GE Healthcare) using standard amine coupling to a density of approximately 3000 resonance units (RU) in a buffer consisting of 10 mM phosphate pH 7.4, 150 mM NaCl, 0.05% Tween20. For interaction experiments a multi-cycle experiment approach was used and performed using either a Biacore™ T200 or Biacore™ X100 instrument (GE Healthcare) at 25° C. Peptides were injected in increasing concentration series (5-8 different concentrations) for 60-120 s at a flow rate of 30 μL/min in a buffer consisting of 10 mM Tris buffer at pH 7.4, with 150 mM NaCl and 0.05% Tween20. This was followed by a dissociation period for up to 10 min. […] Sensorgrams were double-referenced (reference surface, blanks) prior to analysis of the kinetic profiles by globally fitting data to a 1:1 Langmuir binding model to obtain association and dissociation rates for calculation of the equilibrium dissociation constant Kd. Each peptide was tested at in at least 2 independent experiments.

Experiment [3] deals with T2, Human C3 (human, UniProt P01024 23-1663). The experiment can be described thus: cell-based or functional assay.
Experiment [4] deals with T2, Human C3. Put plainly: SPR, C3 immobilised. An outline of the steps: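 Peptide series (5-8 concentrations, 60-120 s, up to 10 min dissociation, Tris pH 7.4 running buffer) flowed over ~3000 RU amine-coupled human C3; MgCl₂ regeneration; at least two independent runs.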
[5] abbreviates: Table 3, human serum, sensitized sheep red blood cells, read-out: IC50[nM], in vitro analysis of inhibition of hemolysis.
[6] abbreviates: Table 4, valine 3 versus isoleucine 3 pairs, read-out: CP hemolysis IC50.

T2 sequence (P01024 23-1663 limits assumed): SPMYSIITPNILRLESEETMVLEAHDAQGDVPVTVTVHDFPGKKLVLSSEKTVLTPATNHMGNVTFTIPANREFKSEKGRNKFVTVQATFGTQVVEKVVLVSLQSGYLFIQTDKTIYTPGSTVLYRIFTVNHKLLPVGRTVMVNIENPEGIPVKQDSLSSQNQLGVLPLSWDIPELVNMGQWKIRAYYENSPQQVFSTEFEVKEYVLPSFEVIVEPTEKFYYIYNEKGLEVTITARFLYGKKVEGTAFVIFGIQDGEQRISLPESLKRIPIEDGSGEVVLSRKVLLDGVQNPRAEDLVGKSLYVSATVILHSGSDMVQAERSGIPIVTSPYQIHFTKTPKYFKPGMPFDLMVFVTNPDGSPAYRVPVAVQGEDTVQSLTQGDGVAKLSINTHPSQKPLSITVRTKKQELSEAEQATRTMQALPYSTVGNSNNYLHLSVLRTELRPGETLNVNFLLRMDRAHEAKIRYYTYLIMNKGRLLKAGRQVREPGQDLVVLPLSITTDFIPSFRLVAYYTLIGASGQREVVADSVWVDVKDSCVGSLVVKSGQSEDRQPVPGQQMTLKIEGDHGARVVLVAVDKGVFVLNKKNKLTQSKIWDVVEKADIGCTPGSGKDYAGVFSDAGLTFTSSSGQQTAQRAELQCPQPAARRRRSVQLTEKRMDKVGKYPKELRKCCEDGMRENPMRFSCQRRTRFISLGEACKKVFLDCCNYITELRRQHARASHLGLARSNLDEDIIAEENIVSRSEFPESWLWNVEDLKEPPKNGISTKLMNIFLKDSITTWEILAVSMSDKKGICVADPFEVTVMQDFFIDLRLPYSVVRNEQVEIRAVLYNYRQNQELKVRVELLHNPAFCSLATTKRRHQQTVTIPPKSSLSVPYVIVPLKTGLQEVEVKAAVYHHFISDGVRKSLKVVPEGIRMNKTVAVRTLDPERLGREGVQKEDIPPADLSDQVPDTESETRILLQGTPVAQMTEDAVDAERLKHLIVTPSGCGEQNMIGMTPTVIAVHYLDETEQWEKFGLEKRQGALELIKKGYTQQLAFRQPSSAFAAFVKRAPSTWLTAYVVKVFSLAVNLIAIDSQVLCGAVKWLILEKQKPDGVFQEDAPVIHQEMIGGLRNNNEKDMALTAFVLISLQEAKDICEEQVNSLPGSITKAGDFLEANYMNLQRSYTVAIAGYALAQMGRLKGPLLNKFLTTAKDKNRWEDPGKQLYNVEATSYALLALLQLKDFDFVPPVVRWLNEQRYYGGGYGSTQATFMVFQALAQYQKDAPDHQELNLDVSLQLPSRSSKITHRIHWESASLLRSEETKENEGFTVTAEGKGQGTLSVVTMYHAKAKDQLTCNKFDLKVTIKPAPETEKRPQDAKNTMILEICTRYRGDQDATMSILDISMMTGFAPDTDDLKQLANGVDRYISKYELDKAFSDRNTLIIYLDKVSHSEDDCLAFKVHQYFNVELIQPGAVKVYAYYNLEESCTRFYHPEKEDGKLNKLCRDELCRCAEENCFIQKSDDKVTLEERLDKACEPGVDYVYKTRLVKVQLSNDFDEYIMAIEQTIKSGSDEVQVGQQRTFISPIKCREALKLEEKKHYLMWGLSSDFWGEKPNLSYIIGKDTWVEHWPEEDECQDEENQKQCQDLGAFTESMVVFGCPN

For `CC[C@H](C)[C@@H]1NC(=O)[C@@H](NC(=O)[C@H](Cc2ccccc2)NC(=O)[C@H](CCC(=O)O)NC(=O)[C@H](CO)NC(C)=O)CCSC[C@@H](C(=O)N(C)CC(=O)N[C@@H](CCC(=O)O)C(=O)NCC(=O)N[C@@H](CCC(=O)O)C(=O)NCCOCCOCC(=O)NCCOCCOCC(=O)N[C@@H](CCCCNC(=O)CC[C@H](NC(=O)CNC(=O)CC[C@H](NC(=O)CCCCCCCCCCCCCCCCC(=O)O)C(=O)O)C(=O)O)C(N)=O)NC(=O)[C@H](CCCNC(=N)N)NC(=O)[C@H](Cc2c[nH]cn2)NC(=O)[C@H](CCC(=O)O)NC(=O)CNC(=O)[C@H](Cc2c[nH]c3ccccc23)NC(=O)[C@H](CC(=O)O)NC(=O)[C@H](CCC(N)=O)NC(=O)[C@H](Cc2cn(C)c3ccccc23)NC1=O` [Compound 152] (Ac-SEF[Abu(4-yl)]I[Trp(1-Me)]QDWGEHRC[Sar]EGE[AEEA][AEEA]K([γGlu-Gly-γGlu-C18 diacid])-NH2; thioether 4-14), the IC50 (in general, the concentration that gives 50% inhibition) in experiment [1] (setting [5]) is under 100 nM. In experiment [2], the Kd (usually the concentration at which binding is half-saturated) turned out to be 16 nM.

Turning to `CC[C@H](C)[C@H](NC(C)=O)C(=O)N[C@H]1CSSC[C@@H](C(=O)N[C@H](C(N)=O)[C@@H](C)O)NC(=O)[C@H](CCCNC(=N)N)NC(=O)[C@H](Cc2c[nH]cn2)NC(=O)[C@H](CCC(=O)O)NC(=O)CNC(=O)[C@H](Cc2c[nH]c3ccccc23)NC(=O)[C@H](CC(=O)O)NC(=O)[C@H](CCC(N)=O)NC(=O)[C@H](Cc2c[nH]c3ccccc23)NC(=O)[C@H]([C@@H](C)CC)NC1=O` [Compound 2] (Ac-ICIWQDWGEHRCT-NH2; disulfide 2-12), the IC50 in experiment [1] (setting [5]) is under 100 nM; in experiment [1] (setting [6]), 94 nM; in experiment [1] (Table 5, different residues at position 3 of Ac-IC(1)XWQDWGEHRC(1)T-NH2, read-out: IC50, CP hemolysis), under 100 nM. The molecule also registered an equilibrium dissociation constant (Kd) in experiment [2] of 16 nM.

As to `CC[C@H](C)[C@H](NC(C)=O)C(=O)N[C@H]1CSSC[C@@H](C(=O)N[C@@H](CO)C(N)=O)NC(=O)[C@H](CCCNC(=N)N)NC(=O)[C@H](Cc2c[nH]cn2)NC(=O)[C@H](CCC(=O)O)NC(=O)CNC(=O)[C@H](Cc2c[nH]c3ccccc23)NC(=O)[C@H](CC(=O)O)NC(=O)[C@H](CCC(N)=O)NC(=O)[C@H](Cc2c[nH]c3ccccc23)NC(=O)[C@H]([C@@H](C)CC)NC1=O` [Compound 21] (Ac-ICIWQDWGEHRCS-NH2; disulfide 2-12), the half-maximal inhibitory concentration (IC50) in experiment [1] (setting [5]) was under 100 nM; in experiment [1] (setting [6]), 77 nM. In experiment [2], this molecule registered a Kd of 16 nM.

In the case of `CC[C@H](C)[C@@H]1NC(=O)[C@@H](NC(=O)[C@H](Cc2ccccc2)NC(=O)[C@H](CCC(=O)O)NC(C)=O)CSCC[C@@H](C(=O)N[C@@H](CCC(=O)O)C(=O)NCC(=O)N[C@@H](CCC(=O)O)C(=O)N[C@@H](CCCCNC(=O)CC[C@H](NC(=O)CNC(=O)CC[C@H](NC(=O)CCCCCCCCCCCCCCCCC(=O)O)C(=O)O)C(=O)O)C(N)=O)NC(=O)[C@H](CCCNC(=N)N)NC(=O)[C@H](Cc2c[nH]cn2)NC(=O)[C@H](CCC(=O)O)NC(=O)CNC(=O)[C@H](Cc2c[nH]c3ccccc23)NC(=O)[C@H](CC(=O)O)NC(=O)[C@H](CCC(N)=O)NC(=O)[C@H](Cc2cn(C)c3ccccc23)NC1=O` [Compound 161, Ac-EFA(1)I[1-Me-Trp]QDWGEHRhC(1)EGE-K([17-carboxy-heptadecanoyl][γGlu]G[γGlu])-NH2] (Ac-EFCI[Trp(1-Me)]QDWGEHR[Abu(4-yl)]EGEK([γGlu-Gly-γGlu-C18 diacid])-NH2; thioether 3-13), the IC50 in experiment [1] (setting [5]) was under 100 nM. In addition, binding in experiment [2] was put at a Kd of 3.4 nM.

For the molecule `CC[C@H](C)[C@@H]1NC(=O)[C@@H](NC(=O)[C@H](Cc2ccccc2)NC(=O)[C@H](CCC(=O)O)NC(=O)[C@H](CO)NC(C)=O)CSSC[C@@H](C(=O)N(C)CC(=O)N[C@@H](CCC(=O)O)C(=O)NCC(=O)N[C@@H](C)C(=O)N[C@@H](CCCCNC(=O)COCCOCCNC(=O)CC[C@H](NC(=O)COCCOCCNC(=O)CNC(=O)CC[C@H](NC(=O)CCCCCCCCCCCCCCCCC(=O)O)C(=O)O)C(=O)O)C(N)=O)NC(=O)[C@H](CCCNC(=N)N)NC(=O)[C@H](Cc2c[nH]cn2)NC(=O)[C@H](CCC(=O)O)NC(=O)CNC(=O)[C@H](Cc2c[nH]c3ccccc23)NC(=O)[C@H](CCC(=O)O)NC(=O)[C@H](CCC(N)=O)NC(=O)[C@H](Cc2cn(C)c3ccccc23)NC1=O` [Compound 120] (Ac-SEFCI[Trp(1-Me)]QEWGEHRC[Sar]EGAK([AEEA-γGlu-AEEA-Gly-γGlu-C18 diacid])-NH2; disulfide 4-14), in experiment [1] (setting [5]), the 50% inhibitory concentration (IC50) is under 250 nM. For the same molecule, in experiment [2], binding was characterised by a dissociation constant (Kd) of 28 nM.

`CC[C@H](C)[C@@H]1NC(=O)[C@@H](NC(=O)[C@H](Cc2ccccc2)NC(=O)[C@H](CCC(=O)O)NC(=O)[C@H](CO)NC(C)=O)CSSC[C@@H](C(=O)N(C)CC(=O)N[C@@H](CCC(=O)O)C(=O)N[C@@H](C)C(N)=O)NC(=O)[C@H](CCCNC(=N)N)NC(=O)[C@H](Cc2c[nH]cn2)NC(=O)[C@H](CCC(=O)O)NC(=O)CNC(=O)[C@H](Cc2c[nH]c3ccccc23)NC(=O)[C@H](CC(=O)O)NC(=O)[C@H](CCC(N)=O)NC(=O)[C@H](Cc2cn(C)c3ccccc23)NC1=O` [Compound 75] (Ac-SEFCI[Trp(1-Me)]QDWGEHRC[Sar]EA-NH2; disulfide 4-14): the half-inhibitory concentration (IC50) in experiment [1] (setting [5]) is under 100 nM. Also, in experiment [2], binding was put at a Kd of 1.5 nM.

B1: Compound 85 (peptide)
peptide: Ac-EFCI[Trp(1-Me)]QDWGEHRCES-NH2
modifications: disulfide 3-13
SMILES: CC[C@H](C)[C@@H]1NC(=O)[C@@H](NC(=O)[C@H](Cc2ccccc2)NC(=O)[C@H](CCC(=O)O)NC(C)=O)CSSC[C@@H](C(=O)N[C@@H](CCC(=O)O)C(=O)N[C@@H](CO)C(N)=O)NC(=O)[C@H](CCCNC(=N)N)NC(=O)[C@H](Cc2c[nH]cn2)NC(=O)[C@H](CCC(=O)O)NC(=O)CNC(=O)[C@H](Cc2c[nH]c3ccccc23)NC(=O)[C@H](CC(=O)O)NC(=O)[C@H](CCC(N)=O)NC(=O)[C@H](Cc2cn(C)c3ccccc23)NC1=O
With B1, the “IC50[nM], inhibition of hemolysis” value in experiment [3] was under 100 nM. Also, in experiment [4], the Kd stood at 1.3 nM.

B2: Compound 86 (peptide)
peptide: Ac-SEFCI[Trp(1-Me)]QDWGEHKC[Sar]EA-NH2
modifications: disulfide 4-14
SMILES: CC[C@H](C)[C@@H]1NC(=O)[C@@H](NC(=O)[C@H](Cc2ccccc2)NC(=O)[C@H](CCC(=O)O)NC(=O)[C@H](CO)NC(C)=O)CSSC[C@@H](C(=O)N(C)CC(=O)N[C@@H](CCC(=O)O)C(=O)N[C@@H](C)C(N)=O)NC(=O)[C@H](CCCCN)NC(=O)[C@H](Cc2c[nH]cn2)NC(=O)[C@H](CCC(=O)O)NC(=O)CNC(=O)[C@H](Cc2c[nH]c3ccccc23)NC(=O)[C@H](CC(=O)O)NC(=O)[C@H](CCC(N)=O)NC(=O)[C@H](Cc2cn(C)c3ccccc23)NC1=O
For the molecule B2, the “IC50[nM], inhibition of hemolysis” value in experiment [3] was under 100 nM. This molecule had a Kd in experiment [4] of 2.6 nM.
